This note sets out measurements from patent US6066642A, “Dihydropyridine-, pyridine-, benzopyran-4-one- and triazoloquinazoline derivative, their preparation and their use as adenosine receptor antagonists” (priority 1998, dated 2000).

The target in one test is T1, human A3 receptors (Homo sapiens, UniProt P0DMS8).
T1 construct: expressed in transfected cells; host or cells: HEK-293 cells (membranes)
T1 sequence (P0DMS8 1-318): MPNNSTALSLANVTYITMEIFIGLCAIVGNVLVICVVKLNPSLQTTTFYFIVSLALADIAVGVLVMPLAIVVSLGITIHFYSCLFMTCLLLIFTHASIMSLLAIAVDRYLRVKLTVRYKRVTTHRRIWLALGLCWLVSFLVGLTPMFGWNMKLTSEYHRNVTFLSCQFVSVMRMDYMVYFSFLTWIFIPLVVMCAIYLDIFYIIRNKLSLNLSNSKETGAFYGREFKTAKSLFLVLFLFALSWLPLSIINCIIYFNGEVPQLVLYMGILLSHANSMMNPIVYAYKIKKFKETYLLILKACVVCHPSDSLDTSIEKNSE
Description: radioligand binding, displacement of specific [125I]AB-MECA binding at human A3 receptors expressed in HEK-293 cells. The conditions noted are these: for Ki: [125I]AB-MECA.

The target of a further test is T2, A2a receptors (Rattus norvegicus, UniProt P30543).
T2 construct: Displacement of specific [^3 H]; from tissue; host or cells: rat striatal membranes
Description: radioligand binding, displacement of specific [3H]CGS 21680 binding in rat striatal membranes. The conditions noted are these: for inhibition at 100 µM: 10^-4 M; for Ki: [3H]CGS 21680, rat striatal membranes.

The target in another test is T3, A1 receptors (Rattus norvegicus, UniProt P25099).
T3 sequence (P25099 1-326): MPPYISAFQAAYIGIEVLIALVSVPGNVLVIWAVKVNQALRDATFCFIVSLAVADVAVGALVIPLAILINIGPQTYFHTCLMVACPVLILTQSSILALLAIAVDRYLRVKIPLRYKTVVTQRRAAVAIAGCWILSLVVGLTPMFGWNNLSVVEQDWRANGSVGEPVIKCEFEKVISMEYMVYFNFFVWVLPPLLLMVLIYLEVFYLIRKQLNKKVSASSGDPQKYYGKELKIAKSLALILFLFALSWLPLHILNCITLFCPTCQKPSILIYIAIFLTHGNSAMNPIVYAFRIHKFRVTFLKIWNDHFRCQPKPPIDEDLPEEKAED
Description: biochemical. The conditions noted are these: for inhibition at 100 µM: 10^-4 M; for Ki: rat brain membranes, read-out: Ki rA1. The format is binding.

[1] abbreviates: Table 12, read-out: % inhibition rA2A.
The mark [2] stands for this setting: Table 12, read-out: displacement of specific binding rA1.
[3] abbreviates: Table 12, read-out: % inhibition rA1.
The mark [4] stands for this setting: Table 12, read-out: displacement of specific binding rA2A.
Setting [5] is: Table 11, read-out: % inhibition rA2A.
The mark [6] stands for this setting: Table 11, read-out: % inhibition rA1.
Setting [7] is: Table 11, read-out: displacement of specific binding rA2A.
Where [8] appears, read: Table 11, read-out: displacement of specific binding rA1.

Read-outs that look alike come from different tables or passages of the source.

T2 sequence (P30543 whole entry): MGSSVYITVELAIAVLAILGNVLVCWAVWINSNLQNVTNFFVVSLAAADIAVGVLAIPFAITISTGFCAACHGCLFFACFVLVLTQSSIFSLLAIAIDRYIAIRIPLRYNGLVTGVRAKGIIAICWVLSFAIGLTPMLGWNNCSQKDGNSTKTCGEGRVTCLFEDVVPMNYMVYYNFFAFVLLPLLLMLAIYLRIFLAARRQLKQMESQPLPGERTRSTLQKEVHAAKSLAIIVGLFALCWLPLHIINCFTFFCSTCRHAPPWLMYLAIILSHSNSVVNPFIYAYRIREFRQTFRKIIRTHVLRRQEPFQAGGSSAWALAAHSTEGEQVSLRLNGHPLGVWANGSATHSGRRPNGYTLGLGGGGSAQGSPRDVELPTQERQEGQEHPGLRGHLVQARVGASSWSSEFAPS
Description for A1 receptors: ^a Displacement of specific [^3 H] PIA binding in rat brain
percentage of specific binding displaced at 100 μM.
Description for A2a receptors: ^b Displacement of specific [^3 H]
or as a percentage of specific binding displaced at 100 μM.
Description for human A3 receptors: A3 receptors expressed in HEK293 cells, in membranes, expressed as
binding displaced at 100 μM.

Consider “9-Chloro-2-(2-furyl)-5-(4'-iodobenzoyl)amino[1,2,4]triazolo [1,5-c]quinazoline [Compound 152]”, for which the Ki on human A3 receptors (Table 15, HEK membranes, read-out: Ki hA3) came to 0.0238 ± 0.0052 µM.

In the case of `CCOC(=O)C1=C(C)NC(c2ccccc2)=C(C(=O)OCc2cccc(C)c2)C1C#Cc1ccccc1` (racemic) [Compound 122b, 3-Ethyl 5-(3-methylbenzyl)-4-phenylethynyl-6-phenyl-1,4(±)-dihydropyridine-3.5-dicarboxylate], the inhibition at 100 µM was 16 ± 2% at A2a receptors (setting [1]) and below 10% at A1 receptors (setting [2]).

For the compound `CCOC(=O)C1=C(C)NC(c2ccccc2)=C(C(=O)OCc2ccc(C)cc2)C1C#Cc1ccccc1` (racemic) [Compound 122c], the values for the inhibition at 100 µM on A2a receptors (setting [1]) and at A1 receptors (setting [2]) were 17 ± 3% and below 10%, respectively.

With `CCOC(=O)C1=C(C)NC(c2ccccc2)=C(C(=O)OCc2ccc(C(F)(F)F)cc2)C1C#Cc1ccccc1` (racemic) [Compound 122d], the inhibition at 100 µM at A2a receptors (setting [1]) came out at 15%; at A1 receptors (setting [3]), 32 ± 3%.

Take `CCOC(=O)C1=C(C)NC(c2ccccc2)=C(C(=O)OCc2cccc([N+](=O)[O-])c2)C1C#Cc1ccccc1` (racemic) [Compound 122f, 3-Ethyl 5-(3-nitrobenzyl)-4-phenylethynyl-6-phenyl-1,4(±)-dihydropyridine-3,5-dicarboxylate]: the inhibition at 100 µM is below 10% at A2a receptors (setting [4]) and 28 ± 2% on A1 receptors (setting [3]).

`CCCOC(=O)C1=C(C)NC(c2ccccc2)=C(C(=O)OCc2ccccc2)C1C#Cc1ccccc1` (racemic) [Compound 124, 3-Propyl 5-benzyl 2-methyl-4-phenylethynyl-6-phenyl-1,4-(±)-dihydropyridine-3,5-dicarboxylate]: the inhibition at 100 µM at A2a receptors (setting [1]) amounted to 16%; on A1 receptors (setting [3]), 27 ± 7%.

On to `CCOC(=O)C1=C(C)NC(c2ccccc2)=C(C(=O)OCCc2ccccc2)C1C#Cc1ccccc1` (racemic) [Compound 125, 3-Ethyl 5-phenylethyl 2-methyl-4-phenylethynyl-6-phenyl-1,4-(±)-dihydropyridine-3.5-dicarboxylate], for which the inhibition at 100 µM on A2a receptors (setting [4]) and on A1 receptors (setting [2]) was below 10% each time.

As to `CCOC(=O)C1=C(C)NC(c2ccccc2)=C(C(=O)OCCCc2ccccc2)C1C#Cc1ccccc1` (racemic) [Compound 126, 3-Ethyl 5-phenylpropyl 2-methyl-4-phenylethynyl-6-phenyl-1,4-(±)-dihydropyridine-3,5-dicarboxylate], the inhibition at 100 µM at A2a receptors (setting [4]) and at A1 receptors (setting [2]) was below 10% each time.

With `CCOC(=O)C1=C(C)NC(c2ccccc2)=C(C(=O)OC(C)(C)C)C1C#Cc1ccccc1` (racemic) [Compound 127, 3-Ethyl 5-t-butyl 2-methyl-4-phenylethynyl-6-phenyl-1,4-(±)-dihydropyridine-3.5-dicarboxylate], the inhibition at 100 µM at A2a receptors (setting [1]) is 27 ± 5%. In addition, on A1 receptors (Table 12, [3H]R-PIA), the Ki was found to be 25.3 µM.

Consider `CCOC(=O)C1=C(C)N(COC)C(c2ccccc2)=C(C(=O)OCC[Si](C)(C)C)C1C#Cc1ccccc1` (racemic) [Compound 137, 1-Methoxymethyl 3-ethyl 5-(2-trimethylsilyl)-ethyl 2-methyl-4-phenylethynyl-6-phenyl-1,4-(±)-dihydropyridine-3,5-dicarboxylate], for which the inhibition at 100 µM is 27 ± 4% at A2a receptors (setting [1]) and below 10% on A1 receptors (setting [2]).

Consider `CCOCN1C(C)=C(C(=O)OCC)C(C#Cc2ccccc2)C(C(=O)OCC[Si](C)(C)C)=C1c1ccccc1` (racemic) [Compound 138, 1-Ethoxymethyl 3-ethyl 5-(2-trimethylsilyl)-ethyl 2-methyl-4-phenylethynyl-6-phenyl-1,4-(±)-dihydropyridine-3,5-dicarboxylate], for which the results for the inhibition at 100 µM at A2a receptors (setting [1]) and at A1 receptors (setting [3]) were 19% and 13 ± 3%, respectively.

Turning to `COc1cc(OC)c2c(=O)c(OC)c(-c3ccccc3)oc2c1` [Compound 2, 3,5,7-Trimethoxyflavone], the Ki was 6.45 ± 1.48 µM at A2a receptors (Table 3, read-out: Ki rA2a) and 0.509 ± 0.049 µM on A1 receptors (Table 3, [3H]PIA).

With `O=c1c(O)c(-c2ccc(O)cc2O)oc2cc(O)cc(O)c12` [Compound 5a, 2',3,4',5,7-pentahydroxyflavone, reference compound], the Ki on A2a receptors (Table 3, read-out: Ki rA2a) is 17.3 µM; on A1 receptors (Table 3, [3H]PIA), 13.8 µM.

Turning to `O=c1cc(-c2ccccc2)oc2ccccc12` [Compound 11a, flavone, reference compound], the Ki at A2a receptors (Table 3, read-out: Ki rA2a) stood at 3.45 ± 1.16 µM; at A1 receptors (Table 3, [3H]PIA) it was 3.28 ± 0.92 µM.

For the compound `O=C1CC(c2ccccc2O)Oc2ccccc21` (stereo not drawn) [Compound 13, reference compound], the Ki on A2a receptors (Table 4, read-out: Ki rA2a) is 17.6 ± 2.1 µM; on A1 receptors (Table 4, [3H]PIA), 2.64 ± 0.56 µM.

Take `COc1c2ccoc2cc2oc(C)cc(=O)c12` [Compound 17, 4-methoxy-7-methyl-5H-furo[3,2-g][1]-benzopyrano-5-one, reference compound]: the Ki on A2a receptors (Table 5, read-out: Ki rA2a) turned out to be 42.4 ± 11.9 µM. Besides, the inhibition at 100 µM at A1 receptors (Table 5, read-out: % of specific binding displaced rA1) is 36 ± 3%.

With `CCCOc1c2ccoc2cc2oc(/C=C/c3ccccc3)cc(=O)c12` [Compound 21, 4-propyloxy-7-trans-styryl-visnagin], the Ki on human A3 receptors (Table 5, HEK-293 membranes, read-out: Ki hA3) worked out at 3.95 µM.

With `COc1cc(O)c2c(=O)c(O)c(-c3ccc(O)c(O)c3)oc2c1` [Compound 36, rhamnetin, reference compound], the Ki on human A3 receptors (Table 6, HEK-293 membranes, read-out: K2 (hA3)) worked out at 1.38 ± 0.18 µM.

In the case of `O=c1c(-c2ccc(O)cc2)coc2cc(O)cc(O)c12` [Compound 40, genistein, reference compound], at human A3 receptors (Table 7, 10^-4 M, read-out: % of specific binding displaced hA3), the inhibition at 100 µM is 20 ± 2%.

As for `COC(=O)C1=C(C)NC(C)=C(C(=O)OCCN(C)Cc2ccccc2)C1c1cccc([N+](=O)[O-])c1` (stereo not drawn) [Compound 63, reference compound], the Ki at A2a receptors (Table 9, read-out: Ki rA2A) was 63.8 µM; at A1 receptors (Table 9, [3H]PIA), 19.6 µM. Further, the “greater affinity to A1 than A2a adenosine receptors” value at A1 receptors (selectivity in words) is “greater affinity to A1 adenosine receptors than A2a receptors”.

With `CCOC(=O)C1=C(C)NC(c2ccccc2)=C(C(=O)OCc2ccccc2)C1/C=C/c1ccccc1` (stereo not drawn) [Compound 99], the inhibition at 100 µM on A2a receptors (setting [5]) came out at 15%; at A1 receptors (setting [6]), 35 ± 3%.

Turning to `CCOC(=O)C1=C(C)NC(c2ccccc2)=C(C(=O)OCc2ccccc2)C1/C=C/c1ccc([N+](=O)[O-])cc1` (stereo not drawn) [Compound 100], the values for the inhibition at 100 µM at A2a receptors (setting [7]) and on A1 receptors (setting [6]) were below 10% and 33%, respectively.

For the compound `CCOC(=O)C1=C(c2ccccc2)NC(C)=C(C(=O)OCc2ccccc2)C1/C=C/c1ccccc1` (stereo not drawn) [Compound 105], the inhibition at 100 µM was 16 ± 11% at A2a receptors (setting [5]) and below 10% on A1 receptors (setting [8]).

As for `CCOC(=O)C1=C(c2ccccc2)NC(C)=C(C(=O)OCc2ccccc2)C1/C=C/c1ccc([N+](=O)[O-])cc1` (stereo not drawn) [Compound 106], the inhibition at 100 µM at A2a receptors (setting [7]) and at A1 receptors (setting [8]) was below 10% each time.

Turning to `CCOC(=O)C1=C(c2ccccc2)NC(C)=C(C(=O)OCc2ccccc2)C1C#Cc1ccccc1` (stereo not drawn) [Compound 107], the inhibition at 100 µM on A2a receptors (setting [7]) is below 10%; on A1 receptors (setting [6]) it was 24 ± 4%.

Turning to `C=CCOC(=O)C1=C(C)NC(c2ccccc2)=C(C(=O)OCC)C1/C=C/c1ccc([N+](=O)[O-])cc1` (stereo not drawn) [Compound 117], the inhibition at 100 µM is 15% at A2a receptors (setting [1]) and below 10% at A1 receptors (setting [2]).

As for `CCOC(=O)C1=C(C)NC(c2ccccc2)=C(C(=O)OCC)C1/C=C/c1ccc([N+](=O)[O-])cc1` (stereo not drawn) [Compound 118], the inhibition at 100 µM on A2a receptors (setting [1]) was found to be 26%; at A1 receptors (setting [3]), 31%.

Turning to `CCOC(=O)C1=C(C)NC(c2ccccc2)=C(C(=O)OCc2cccc(I)c2)C1C#Cc1ccccc1` (stereo not drawn) [Compound 122e], the results for the inhibition at 100 µM at A2a receptors (setting [1]) and on A1 receptors (setting [3]) were 19 ± 7% and 14%, respectively.

Consider `CC(C)(C)OC(=O)Nc1nc2ccc(Cl)cc2c2nc(-c3ccco3)nn12` [Compound 150, 5-[(tert.-Butoxycarbonyl)amino]-9-chloro-2-(2-furyl)[1,2,4]triazolo[1,5-c]quinazoline], for which the Ki at A2a receptors (Table 15, read-out: Ki rA2A) stood at 0.092 ± 0.008 µM; at A1 receptors (Table 15, [3H]PIA), 0.19 ± 0.016 µM.

Take `CCOC(=O)C1=C(c2ccccc2)NC(C)=C(C(=O)OCC2COC(C)(C)O2)C1C#Cc1ccccc1` (stereo not drawn) [Compound 209a]: the inhibition at 100 µM is below 10% on A2a receptors (Table 14, read-out: displacement of specific binding rA2A) and 32 ± 4% on A1 receptors (Table 14, read-out: % inhibition rA1).
